The numbers were not newly measured in US20110212189A1, “GASTRORETENTIVE ORAL HIGH DOSE ZINC PREPARATIONS” (ADEONA PHARMACEUTICALS, INC., priority 2009, published 2011), which cites them from elsewhere.

The conditions of this series: 50 mg elemental zinc taken with food.

In the case of `O=S(=O)([O-])[O-].[Zn+2]` [zinc sulphate], the nausea/vomiting effects entry is listed as “same effects have been observed”.
